In ChEMBL document CHEMBL3046490, “Evaluation of fungicides to control circular leaf spot of persimmon caused by Mycosphaerella nawae” (Crop Prot, 2011):
In brackets after ≈: the same amount, converted by molar mass.

Columns and labels:
Format in all cases: functional, organism-based
[1] = system: Plurivorosphaerella nawae; assay: Antifungal activity against circular leaf spot causing Mycosphaerella nawae MY5 assessed as inhibition of mycelial growth on potato dextrose agar
[2] = system: Plurivorosphaerella nawae; assay: Antifungal activity against circular leaf spot causing Mycosphaerella nawae MY1 assessed as inhibition of mycelial growth on potato dextrose agar
Zasmidium citrigriseum = assay: Antifungal activity against citrus greasy spot disease caused by Zasmidium citri assessed as inhibition of mycelial growth on potato dextrose agar
Monilinia fructicola = assay: Antifungal activity against Monilinia fructicola isolated from peach fields assessed as mycelial growth inhibition

| SMILES | EC50 [1] | EC50 [2] | EC50 (Zasmidium citrigriseum) | EC50 (Monilinia fructicola) |
| --- | --- | --- | --- | --- |
| Cc1cc(C2CC2)nc(Nc2ccccc2)n1 [CYPRODINIL] | 52.4 mg/L (≈ 233 µM) | 76.8 mg/L (≈ 341 µM) | – | – |
| CN(C)C(=S)SSC(=S)N(C)C [THIRAM] | 26.8 mg/L (≈ 111 µM) | 13.8 mg/L (≈ 57.4 µM) | – | – |
| O=[N+]([O-])c1cc(C(F)(F)F)c(Cl)c([N+](=O)[O-])c1Nc1ncc(C(F)(F)F)cc1Cl [FLUAZINAM] | 50.6 mg/L (≈ 109 µM) | 24 mg/L (≈ 51.6 µM) | – | – |
| COC(=O)NC(=S)Nc1ccccc1NC(=S)NC(=O)OC [THIOPHANATE METHYL] | 1.7 mg/L (≈ 4.96 µM) | 1.5 mg/L (≈ 4.38 µM) | – | – |
| CC(Cc1ccc(C(C)(C)C)cc1)CN1C[C@@H](C)O[C@@H](C)C1 (stereo not given in full) [FENPROPIMORPH] | 0.4 mg/L (≈ 1.32 µM) | 0.2 mg/L (≈ 0.659 µM) | – | – |
| CC(C)(C)C(O)(CCc1ccc(Cl)cc1)Cn1cncn1 (stereo not given) [TEBUCONAZOLE] | 0.7 mg/L (≈ 2.27 µM) | 1.3 mg/L (≈ 4.22 µM) | – | – |
| N#Cc1c(Cl)c(Cl)c(Cl)c(C#N)c1Cl [CHLOROTHALONIL] | 17 mg/L (≈ 63.9 µM) | 33.5 mg/L (≈ 126 µM) | – | – |
| O=C1C2CC=CCC2C(=O)N1SC(Cl)(Cl)Cl (stereo not given) [CAPTAN] | > 100 mg/L | > 100 mg/L | – | – |
| COC(=O)N(OC)c1ccccc1COc1ccn(-c2ccc(Cl)cc2)n1 [PYRACLOSTROBIN] | 1.9 mg/L (≈ 4.9 µM) | 1.6 mg/L (≈ 4.13 µM) | 0.03 ppm | 0.04 ppm |
